This assay deals with Influenza A/WSN/33 (H1N1) virus. Nature of the assay: In vitro anti-influenza virus assay (neutralization test), cytopathic effect on MDCK cells. It counts as cell-based. Particulars: MDCK cells, 72 h, read-out: IC50 (concentration reducing virus-induced cytopathic effect by 50%). How it is done:
Anti-influenza activities of the coumarin compounds were evaluated by measuring the ability of a test compound to inhibit the cytopathic effect induced by an influenza virus on MDCK cells. The 96-well tissue culture plates were seeded with 200 μL of MDCK cells at a concentration of 1.1×10^5 cells/mL in DMEM with 10% fetal bovine serum (FBS). The plates were incubated for 24-30 h at 37° C. and were used at about 90% confluency. Influenza A/WSN/33 (H1N1) virus (100 TCID50) was added to the cells and incubated at 35° C. for 1 h. After adsorption, the infected cell plates were overlaid with 50 μL of DMEM plus 2% FBS and a test compound with different concentrations. The plate was incubated at 35° C. for 72 h. At the end of incubation, the plates were fixed by the addition of 100 μL of 4% formaldehyde for 1 h at room temperature. After the removal of formaldehyde, the plates were stained with 0.1% crystal violet for 15 min at room temperature. The plates were washed and dried, and the density of the well was measured at 570 nm. The concentration required for a test compound to reduce the virus-induced cytopathic effect (CPE) by 50% relative to the virus control was expressed as IC50.
Compounds 1 and 95 were also tested on various influenza virus strains. Amantadine or Relenza was also tested for comparison. IC50 is defined as the concentration required for a test compound to reduce the virus-induced cytopathic effect (CPE) by 50% relative to the virus control.
(In general: Protection from cytopathic effect is a common read-out in antiviral testing.)

Where [1] appears, read: lower bound (10 nM), upper in μM.

Where two headings read alike, the source gives them in different places.

As to `Cc1cc(=O)oc2c1ccc1oc(C(=O)c3ccccc3)c(-c3ccc(Cl)cc3)c12` [Compound 137], under setting [1], the IC50 is 10 to 999 nM. On the same count and under the same terms, in the case of `Cc1cc(=O)oc2c1ccc1oc(C(=O)c3ccccc3)c(-c3ccccc3Br)c12` [Compound 138] it was 10 to 999 nM; in that of `Cc1cc(=O)oc2c1ccc1oc(C(=O)c3ccccc3)c(-c3cccc(Br)c3)c12` [Compound 139], 10 to 999 nM; in that of `Cc1ccc(-c2c(C(=O)c3ccccc3)oc3ccc4c(C)cc(=O)oc4c23)cc1` [Compound 142], 10 to 999 nM. In the case of `Cc1cc(=O)oc2c1ccc1oc(C(=O)c3ccccc3)c(-c3cccc(C#N)c3)c12` [Compound 143], under setting [1], the IC50 was 10 to 999 nM. As to `Cc1cc(=O)oc2c1ccc1oc(C(=O)c3ccccc3)c(-c3cccc([N+](=O)[O-])c3)c12` [Compound 144], the IC50 under setting [1] is 10 to 999 nM. In the case of `Cc1cc(=O)oc2c1ccc1oc(C(=O)c3ccccc3)c(-c3ccc([N+](=O)[O-])cc3)c12` [Compound 145], the IC50 under setting [1] is 10 to 999 nM.

Regarding `Cc1cc(=O)oc2c1ccc1oc(C(=O)c3ccccc3)c(-c3cccc(N)c3)c12` [Compound 146], the IC50 under setting [1] fell in the range of 10 to 999 nM. Regarding `Cc1cc(=O)oc2c1ccc1oc(C(=O)c3ccccc3)c(-c3ccc4ccccc4c3)c12` [Compound 147], the IC50 (ranges given) was in the range of 1000 to 5900 nM. Take `Cc1cc(=O)oc2c1ccc1oc(C(=O)c3ccccc3)c(-c3cc(F)cc(F)c3)c12` [Compound 148]: the IC50 under setting [1] fell in the range of 10 to 999 nM. For `Cc1cc(=O)oc2c1ccc1oc(C(=O)c3ccccc3)c(-c3cc(Cl)cc(Cl)c3)c12` [Compound 149], under “ranges given”, the IC50 was in the range of 1000 to 5900 nM. `Cc1cc(=O)oc2c1ccc1oc(C(=O)c3ccccc3)c(-c3cc(Br)cc(Br)c3)c12` [Compound 150]: the IC50 under setting [1] is 10 to 999 nM.

With `Cc1cc(=O)oc2c1ccc1oc(C(=O)c3ccccc3)cc12` [Compound 153], for the setting “ranges given”, the IC50 lay within 1000 to 5900 nM. Consider `Cc1cc(=O)oc2c1ccc1oc(C(=O)c3ccccc3)c(C)c12` [Compound 154], for which, for the setting “ranges given”, the IC50 is 1000 to 5900 nM. For the molecule `CCCc1c(C(=O)c2ccccc2)oc2ccc3c(C)cc(=O)oc3c12` [Compound 155], the IC50 under setting [1] was 10 to 999 nM.

In the case of `CCCCCc1c(C(=O)c2ccccc2)oc2ccc3c(C)cc(=O)oc3c12` [Compound 156], the IC50 under setting [1] fell in the range of 10 to 999 nM. On the same count and under the same terms, the figure for `CCCCCCc1c(C(=O)c2ccccc2)oc2ccc3c(C)cc(=O)oc3c12` [Compound 157] is 10 to 999 nM. Same read-out and setting: in the case of `Cc1cc(=O)oc2c1ccc1oc(C(=O)c3ccccc3)c(-c3ccco3)c12` [Compound 159] it was 10 to 999 nM; in that of `Cc1cc(=O)oc2c1ccc1oc(C(=O)c3ccccc3)c(-c3cccs3)c12` [Compound 160], 10 to 999 nM.

Regarding `Cc1cc(=O)oc2c1ccc1oc(C(=O)c3ccccc3)c(/C=C/c3ccccc3)c12` [Compound 161], the IC50 (ranges given) was 1000 to 5900 nM. Still for that read-out and setting: the figure for `Cc1cc(=O)oc2c1ccc1oc(C(=O)c3ccccc3)c(C3CCCCC3)c12` [Compound 165] is 1000 to 5900 nM. For `Cc1cc(=O)oc2c1ccc1oc(C(=S)c3ccccc3)c(-c3ccccc3)c12` [Compound 166], the IC50 under setting [1] was in the range of 10 to 999 nM. Regarding `Cc1cc(=O)oc2c1ccc1oc(/C(=N/O)c3ccccc3)c(-c3ccccc3)c12` [Compound 171], where the note is “ranges given”, the IC50 fell in the range of 1000 to 5900 nM.

In the case of `Cc1cc(=O)oc2c1ccc1oc(C(O)c3ccccc3)c(-c3ccccc3)c12` (stereo not shown) [Compound 172], under setting [1], the IC50 was in the range of 10 to 999 nM. Consider `Cc1cc(=O)oc2c1ccc1oc(Cc3ccccc3)c(-c3ccccc3)c12` [Compound 173], for which the IC50 under setting [1] was in the range of 10 to 999 nM. Turning to `Cc1cc(=O)oc2c1ccc1oc(C(=O)c3cccc(OCCOCCOCCO)c3)c(-c3ccccc3)c12` [Compound 177], the IC50 (ranges given) was in the range of 6000 to 25000 nM. On to `Cc1cc(=O)oc2c1ccc1oc(C(=O)c3cccc(OCCOCCOCCOCCCl)c3)c(-c3ccccc3)c12` [Compound 178], for which the IC50 (ranges given) lay in the range of 1000 to 5900 nM.

As for `Cc1cc(=O)oc2c1ccc1oc(C(=O)c3cccc(OCC4CC4)c3)c(-c3ccccc3)c12` [Compound 179], under setting [1], the IC50 was in the range of 10 to 999 nM. Still for that read-out and setting: the figure for `CC(=O)Oc1cccc(C(=O)c2oc3ccc4c(C)cc(=O)oc4c3c2-c2ccccc2)c1` [Compound 180] is 10 to 999 nM. On to `Cc1cc(=O)oc2c1ccc1oc(C(=O)c3cccc(OC(=O)C4CC4)c3)c(-c3ccccc3)c12` [Compound 181], for which the IC50 (ranges given) lay in the range of 1000 to 5900 nM. On the same count and under the same terms, the figure for `C=CC(=O)Oc1cccc(C(=O)c2oc3ccc4c(C)cc(=O)oc4c3c2-c2ccccc2)c1` [Compound 182] is 1000 to 5900 nM; for `Cc1cc(=O)oc2c1ccc1oc(C(=O)c3cccc(OCCN[C@@]45C[C@@H]6C[C@@H](C[C@@](O)(C6)C4)C5)c3)c(-c3ccccc3)c12` [Compound 183] it is 6000 to 25000 nM; for `Cc1cc(=O)oc2c1ccc1oc(C(=O)c3cccc(OCCO)c3)c(-c3ccccc3)c12` [Compound 184] it is 6000 to 25000 nM. Same read-out and setting: in the case of `Cc1cc(=O)oc2c1ccc1oc(C(=O)c3cccc(OCCCO)c3)c(-c3ccccc3)c12` [Compound 185] it was 1000 to 5900 nM.

With `Cc1cc(=O)oc2c1ccc1oc(C(=O)c3cccc(OCCCCO)c3)c(-c3ccccc3)c12` [Compound 186], under setting [1], the IC50 fell in the range of 10 to 999 nM. Consider `Cc1cc(=O)oc2c1ccc1oc(C(=O)c3cccc(OCCCCCO)c3)c(-c3ccccc3)c12` [Compound 187], for which, for the setting “ranges given”, the IC50 is 1000 to 5900 nM. Consider `Cc1cc(=O)oc2c1ccc1oc(C(=O)c3cccc(OCCCCCCO)c3)c(-c3ccccc3)c12` [Compound 188], for which the IC50 under setting [1] was in the range of 10 to 999 nM.

`Cc1cc(=O)oc2c1ccc1oc(C(=O)c3cccc(OCCO[Si](C)(C)C(C)(C)C)c3)c(-c3ccccc3)c12` [Compound 189]: the IC50 under setting [1] was 10 to 999 nM. Take `Cc1cc(=O)oc2c1ccc1oc(C(=O)c3cccc(OCCCO[Si](C)(C)C(C)(C)C)c3)c(-c3ccccc3)c12` [Compound 190]: for the setting “ranges given”, the IC50 is 1000 to 5900 nM. Same read-out and setting: in the case of `Cc1cc(=O)oc2c1ccc1oc(C(=O)c3cccc(OCCCCCCO[Si](C)(C)C(C)(C)C)c3)c(-c3ccccc3)c12` [Compound 193] it was 1000 to 5900 nM. On the same count and under the same terms, the figure for `CC(=O)OCC1C(OCCOc2cccc(C(=O)c3oc4ccc5c(C)cc(=O)oc5c4c3-c3ccccc3)c2)OC(OC(C)=O)C(OC(C)=O)C1OC(C)=O` (stereo not shown) [Compound 194] is 6000 to 25000 nM; for `Cc1cc(=O)oc2c1ccc1oc(C(=O)c3cccc(OCCOC4OC(O)C(O)C(O)C4CO)c3)c(-c3ccccc3)c12` (stereo not shown) [Compound 195] it is 6000 to 25000 nM.

For the molecule `CC(=O)OCC1OC(OCCCOc2cccc(C(=O)c3oc4ccc5c(C)cc(=O)oc5c4c3-c3ccccc3)c2)C(OC(C)=O)C(OC(C)=O)C1OC(C)=O` (stereo not shown) [Compound 196], the IC50 (ranges given) fell in the range of 6000 to 25000 nM.

On to `Cc1cc(=O)oc2c1ccc1oc(C(=O)c3cccc(OCCCOC4OC(CO)C(O)C(O)C4O)c3)c(-c3ccccc3)c12` (stereo not shown) [Compound 197], for which, where the note is “ranges given”, the IC50 is 6000 to 25000 nM.

Regarding `Cc1cc(=O)oc2c1ccc1oc(C(=O)c3cccc(OC(=O)C#Cc4ccccc4)c3)c(-c3ccccc3)c12` [Compound 201], under “ranges given”, the IC50 fell in the range of 1000 to 5900 nM. On the same count and under the same terms, in the case of `C#CCCC(=O)Oc1cccc(C(=O)c2oc3ccc4c(C)cc(=O)oc4c3c2-c2ccccc2)c1` [Compound 202] it was 1000 to 5900 nM; in that of `CCCCCC#CC(=O)Oc1cccc(C(=O)c2oc3ccc4c(C)cc(=O)oc4c3c2-c2ccccc2)c1` [Compound 203], 1000 to 5900 nM. `Cc1cc(=O)oc2c1ccc1oc(C(=O)O)c(-c3ccccc3)c12` [Compound 205]: the IC50 (ranges given) fell in the range of 1000 to 5900 nM. For `Cc1cc(=O)oc2c1ccc1oc(C(=O)c3ccccc3)c(-c3cccc4ccccc34)c12` [Compound 206], under setting [1], the IC50 was 10 to 999 nM. For `Cc1cc(=O)oc2c1ccc1oc(C(=O)c3ccccc3)c(-c3cccc(C(=O)O)c3)c12` [Compound 207], the IC50 (ranges given) fell in the range of 1000 to 5900 nM. On the same count and under the same terms, the figure for `Cc1cc(=O)oc2c1ccc1oc(C(=O)c3ccc([N+](=O)[O-])cc3)c(-c3ccc(Br)cc3)c12` [Compound 216] is 6000 to 25000 nM; for `Cc1cc(=O)oc2c1ccc1oc(C(=O)c3cccc(Cl)c3)c(-c3ccc(Br)cc3)c12` [Compound 217] it is 6000 to 25000 nM. Still for that read-out and setting: in the case of `Cc1cc(=O)oc2c1ccc1oc(C(=O)c3ccc4ccccc4c3)c(-c3ccc(F)cc3)c12` [Compound 220] it was 1000 to 5900 nM. Same read-out and setting: the figure for `Cc1cc(=O)oc2c1ccc1oc(C(=O)c3cc(F)ccc3F)c(-c3ccc(F)cc3)c12` [Compound 221] is 1000 to 5900 nM.

As to `Cc1cc(=O)oc2c1ccc1oc(C(=O)c3cccc(Cl)c3)c(-c3ccc(F)cc3)c12` [Compound 222], the IC50 under setting [1] is 10 to 999 nM.

Consider `Cc1cc(=O)oc2c1ccc1oc(C(=O)c3ccccc3)c(-c3ccc(Cl)c(Cl)c3)c12` [Compound 224], for which the IC50 (ranges given) fell in the range of 6000 to 25000 nM.

With `Cc1cc(=O)oc2c1ccc1oc(C(O)c3ccccc3)cc12` (stereo not shown) [Compound 226], the IC50 (ranges given) lay in the range of 1000 to 5900 nM. On the same count and under the same terms, the figure for `Cc1cc(=O)oc2c1ccc1[nH]c3ccccc3c12` [Compound 231] is 6000 to 25000 nM. Regarding `C#CCOc1cccc(C(=O)c2oc3ccc4c(C)cc(=O)oc4c3c2-c2ccccc2)c1` [Compound 233], the IC50 under setting [1] was in the range of 10 to 999 nM. Still for that read-out and setting: in the case of `Cc1cc(=O)oc2c1ccc1oc(C(O)c3ccccc3)c(-c3cccc(C#N)c3)c12` (stereo not shown) [Compound 234] it was 10 to 999 nM. With `Cc1cc(=O)oc2c1ccc1oc(C(=O)c3cccc(OCCCCI)c3)c(-c3ccccc3)c12` [Compound 236], the IC50 (ranges given) was 1000 to 5900 nM.

Values taken from US20090312406A1, “COUMARIN COMPOUNDS AND THEIR USE FOR TREATING VIRAL INFECTION” (priority 2008, published 2009).
